Consider 3 molecules from patent US20190211020A1 (Agency for Science, Technology and Research, priority 2012, published 2019).

The nature of this data set: Pharmacokinetics assays (plasma and brain). The data set is classed as in vivo. On the set-up: AUC(0-t) / AUC(0-inf): concentration or dose not given beside the values. Particulars: for Plasma/Brain Ratio: in vivo; for AUC(0-t): read-out: Plasma AUC last; for Cmax: species, dose and route not given.
The mark [1] stands for this setting: brain, read-out: Brain T1/2 (converted).
[2] abbreviates: plasma, read-out: Plasma T1/2 (converted).

Like-named read-outs stand apart in the source and are kept apart here.

In the case of `N#Cc1ccc(-c2cnn3ccc(-c4ccc(C(=O)N5CCOCC5)cc4)nc23)cc1` [Entry 8], the “Plasma/Brain Ratio” value was found to be 0.53. Where the note is “brain”, the “Brain AUC inf” value came out at 29267 ng·h/g, the “Brain AUC last” value came to 29166 ng·h/g and the “Brain Cmax” value was 3967 ng/g. The half-life under setting [1] was 158 min. Where the note is “brain, read-out: Brain Tmax”, the Tmax is 120 min. Moreover, for the setting “plasma”, the AUC(0-inf) turned out to be 55100 ng·h/mL, the AUC(0-t) came out at 54800 ng·h/mL and the Cmax was determined as 5970 ng/mL. Further, the half-life under setting [2] was 167 min. In addition, where the note is “plasma, read-out: Plasma Tmax”, the Tmax stood at 30 min.
Regarding `CC(=O)Nc1cc(-c2ccc3ncc(-c4ccc(C#N)cc4)n3c2)ccc1C(=O)N1CCOCC1` [Entry 9], the “Plasma/Brain Ratio” value came out at 0.03. Besides, where the note is “brain”, the “Brain AUC inf” value turned out to be 161 ng·h/g, the “Brain AUC last” value was found to be 156 ng·h/g and the “Brain Cmax” value is listed as 106 ng/g. The half-life under setting [1] is 45.6 min. Besides, the Tmax (brain, read-out: Brain Tmax) was 30 min. Also, where the note is “plasma”, the AUC(0-inf) came out at 5720 ng·h/mL, the AUC(0-t) was 5720 ng·h/mL and the peak level (Cmax) was 3860 ng/mL. In addition, the half-life under setting [2] was 88.2 min. The Tmax (plasma, read-out: Plasma Tmax) is 15 min.
For `N#Cc1ccc(-c2cnc3cnc(-c4ccc(C(=O)N5CCOCC5)cc4)cn23)cc1` [Entry 10], the “Plasma/Brain Ratio” value came out at 0.06. Under “brain”, the “Brain AUC inf” value came to 775 ng·h/g, the “Brain AUC last” value came out at 754 ng·h/g and the “Brain Cmax” value is 469 ng/g. Further, the half-life under setting [1] is 41.4 min. The Tmax (brain, read-out: Brain Tmax) is 60 min. Moreover, for the setting “plasma”, the AUC(0-inf) worked out at 12800 ng·h/mL, the AUC(0-t) worked out at 12700 ng·h/mL and the Cmax was 6400 ng/mL. Also, the half-life under setting [2] is 66.6 min. The Tmax (plasma, read-out: Plasma Tmax) is 30 min.
